One experiment has as its system Bacillus subtilis. The experiment is described as follows: Minimum inhibitory concentration against Bacillus subtilis. The experiment is classed as functional.
The subject of experiment [1] is Staphylococcus aureus. In words: Activity against methicillin sensitive organism Staphylococcus aureus 853 in presence of serum. The experiment is classed as functional, organism-based.
Experiment [2] has as its system Staphylococcus aureus. In words: Minimum inhibitory concentration against methicillin sensitive organism Staphylococcus aureus 853. Type of experiment: functional.
Experiment [3] has as its system Staphylococcus aureus. The experiment is described as follows: Minimum inhibitory concentration against methicillin resistant organism Staphylococcus aureus COL. Type of experiment: functional.

Our source for the MIC values is ChEMBL document CHEMBL1133262, “Studies on the novel anti-staphyloccal compound nematophin” (2000).

Values after ≈ are worked out from the molar mass of the structure shown. Active and inactive are the calls of the source. No cut-off for these calls is given here.

As usually defined, the MIC is the least concentration at which growth counts as inhibited. On to `CCC(C)C(=O)C(=O)NCCc1c(-c2ccc[n+](CC(N)=O)c2)[nH]c2ccccc12.[I-]` (stereo unspecified), for which the MIC with Bacillus subtilis and in the experiment on Staphylococcus aureus [2] was greater than 32 µg/mL throughout. Also, the MIC entry in the experiment on Staphylococcus aureus [1] was “inactive”.
Consider `CCC(C)C(=O)C(=O)NCCn1c(-c2ccccc2)nc2ccccc21` (stereo unspecified), for which the MIC is greater than 32 µg/mL against Bacillus subtilis, 8 µg/mL (≈ 22.9 µM) with Staphylococcus aureus [2] and 16 µg/mL (≈ 45.8 µM) in the experiment with Staphylococcus aureus [3]. Besides, the MIC entry in the experiment on Staphylococcus aureus [1] was “inactive”.
Consider `O=C1c2ccccc2C(=O)N1CCc1c(-c2cccnc2)[nH]c2ccccc12`, for which, in the experiment on Staphylococcus aureus [1], the MIC result is “inactive”.
With `CCC(C)C(=O)C(=O)NCCn1c(-c2ccccc2)[n+](C)c2ccccc21.[I-]` (stereo unspecified), the MIC against Bacillus subtilis and against Staphylococcus aureus [2] was greater than 32 µg/mL throughout. Also, the MIC entry in the experiment on Staphylococcus aureus [1] was “inactive”.
On to `O=C1c2ccccc2C(=O)N1CCn1cnc2ccccc21`, for which, in the experiment on Staphylococcus aureus [1], the MIC result is “inactive”.
Take `CCC(C)C(=O)C(=O)NCCc1cn(Cc2ccccc2)c2ccccc12` (stereo unspecified): the minimum inhibitory concentration (MIC) against Bacillus subtilis is greater than 32 µg/mL; against Staphylococcus aureus [2] it was 2 µg/mL (≈ 5.52 µM); against Staphylococcus aureus [3], greater than 32 µg/mL. In the experiment with Staphylococcus aureus [1], the MIC entry is “inactive”.
Turning to `CCC(C)C(=O)C(=O)NCCn1c[n+](C)c2ccccc21.[I-]` (stereo unspecified), the MIC with Bacillus subtilis and in the experiment on Staphylococcus aureus [2] was greater than 32 µg/mL each time. Further, the MIC result with Staphylococcus aureus [1] is “inactive”.
`O=C1c2ccccc2C(=O)N1CCc1c(-c2ccccc2)[nH]c2ccccc12`: the MIC entry in the experiment with Staphylococcus aureus [1] was “inactive”.
As for `CCC(C)C(=O)C(=O)NCCc1c(-c2cccnc2)[nH]c2ccccc12` (stereo unspecified), the MIC against Bacillus subtilis was greater than 32 µg/mL; in the experiment with Staphylococcus aureus [2], 0.5 µg/mL (≈ 1.43 µM); in the experiment with Staphylococcus aureus [3], 4 µg/mL (≈ 11.4 µM). Also, the MIC entry with Staphylococcus aureus [1] is “inactive”.
For `O=[N+]([O-])c1ccccc1F`, the MIC result in the experiment with Staphylococcus aureus [1] was “inactive”.
In the case of `CCC(C)C(=O)C(=O)NCCc1c(-c2ccccc2)[nH]c2ccccc12` (stereo unspecified), the figures for the MIC in the experiment with Bacillus subtilis, against Staphylococcus aureus [2] and against Staphylococcus aureus [3] were 8 µg/mL (≈ 23 µM), less than 0.03 µg/mL and 0.06 µg/mL (≈ 0.172 µM), respectively. Also, the MIC result in the experiment with Staphylococcus aureus [1] is “inactive”.
On to `CCC(C)C(=O)C(=O)NCCn1cnc2ccccc21` (stereo unspecified), for which the minimum inhibitory concentration (MIC) in the experiment with Bacillus subtilis and in the experiment on Staphylococcus aureus [2] was greater than 32 µg/mL throughout. The MIC entry in the experiment on Staphylococcus aureus [1] was “inactive”.
With `O=C1c2ccccc2C(=O)N1CCn1c(-c2ccccc2)nc2ccccc21`, the MIC result in the experiment with Staphylococcus aureus [1] was “inactive”.
`CCC(C)C(=O)C(=O)NCCc1c[nH]c2ccccc12` (stereo unspecified): the values for the MIC against Bacillus subtilis, with Staphylococcus aureus [2] and against Staphylococcus aureus [3] were greater than 32 µg/mL, 2 µg/mL (≈ 7.34 µM) and 16 µg/mL (≈ 58.7 µM), respectively. Besides, the MIC result with Staphylococcus aureus [1] is “inactive”.
On to `CCC(C)C(=O)C(=O)NCCc1c(-c2ccc[n+](C)c2)[nH]c2ccccc12.[I-]` (stereo unspecified), for which the MIC in the experiment on Bacillus subtilis and in the experiment with Staphylococcus aureus [2] was greater than 32 µg/mL throughout. In the experiment on Staphylococcus aureus [1], the MIC result is “inactive”.
Consider `O=C1c2ccccc2C(=O)N1CCc1c[nH]c2ccccc12`, for which the MIC result in the experiment with Staphylococcus aureus [1] was “inactive”.
